Source: patent US20240109900A1, “AZABICYCLIC SHP2 INHIBITORS” (IRBM S.P.A., priority 2021, published 2024)
Like-named read-outs stand apart in the source and are kept apart here.

How the values were obtained:
[1] = molecular target: SHP-2 enzyme (Met1-Leu525) (Homo sapiens (Human), UniProt Q06124); experiment: SHP2 inhibition enzymatic assay; assay type: biochemical; settings: 75 μM DiFMUP substrate
Summary of the method: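 SHP-2 (Met1-Leu525), 0.5 nM, activated with 500 nM IRS1 bis-phosphopeptide, preincubated 30 min with compounds in HEPES pH 7.2 buffer with 5 mM DTT. 75 μM DiFMUP added for 30 min at room temperature, stopped with bpV; fluorescence read. IC50 from four-parameter logistic fit of % inhibition.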

[2] = test system: ERK phosphorylation in KYSE-520 cells; experiment: Phospho-ERK cellular assay; assay type: cell-based; settings: read-out: PERK IC50
Summary of the method: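 TR-FRET read-out of ERK1/2 Thr202/Tyr204 phosphorylation was taken after overnight antibody incubation at room temperature. Before that, KYSE-520 cells were treated 2 h at 37 °C with compound dilutions and lysed 30 min. Percent inhibition relative to vehicle and cell-free wells was fitted four-parametrically to give IC50.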

[3] = 0.5 nM SHP-2 activated by 500 nM IRS1 peptide, read-out: SHP2wt-IC50
[4] = Homo sapiens, KYSE-520, 2 h, KYSE-520 cells, 2 h at 37° C., phospho-ERK1/2 (Thr202/Tyr204) TR-FRET
[5] = KYSE-520 cells, 2 h at 37° C., phospho-ERK1/2 (Thr202/Tyr204) TR-FRET
[6] = SHP2wt-IC50, 0.5 nM SHP-2 activated by 500 nM IRS1 peptide

Chain of SHP-2 enzyme (Met1-Leu525) (Q06124 1-525): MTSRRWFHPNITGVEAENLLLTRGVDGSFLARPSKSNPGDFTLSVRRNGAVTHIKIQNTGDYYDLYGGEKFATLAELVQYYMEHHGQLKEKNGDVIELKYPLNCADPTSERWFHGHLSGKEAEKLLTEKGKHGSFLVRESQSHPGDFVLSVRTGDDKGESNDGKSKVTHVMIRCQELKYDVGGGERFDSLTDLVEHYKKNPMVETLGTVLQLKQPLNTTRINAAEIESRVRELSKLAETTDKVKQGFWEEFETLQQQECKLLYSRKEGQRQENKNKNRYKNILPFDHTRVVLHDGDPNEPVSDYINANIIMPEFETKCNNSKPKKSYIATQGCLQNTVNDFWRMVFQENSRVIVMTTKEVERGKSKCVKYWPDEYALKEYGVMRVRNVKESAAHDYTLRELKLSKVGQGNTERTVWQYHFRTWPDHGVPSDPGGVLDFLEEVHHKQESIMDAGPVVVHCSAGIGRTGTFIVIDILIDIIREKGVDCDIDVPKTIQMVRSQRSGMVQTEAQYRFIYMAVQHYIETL

Row | IC50 [1, 3] [µM] | IC50 [2, 4] [µM] | Compound | IC50 [2, 5] [µM] | IC50 [1, 6] [µM] | IC50 ([2]; Homo sapiens, KYSE-520, 2 h) [µM]
1 | < 0.5 | < 1 | Cc1nccc(Sc2ccc3nc(N4CC[C@@H]5[C@H](C4)[C@@]5(CN)c4cc(F)ccc4F)cnc3n2)c1F [Example 426, ((1S,6R,7R)-7-(2,5-difluorophenyl)-3-(6-((3-fluoro-2-methylpyridin-4-yl)thio)pyrido[2,3-b]pyrazin-2-yl)-3-azabicyclo[4.1.0]heptan-7-yl)methanamine] | – | – | –
2 | < 0.5 | < 1 | Cn1cc2c(Cl)c(Sc3cnc(N4CC[C@@H]5[C@H](C4)[C@@]5(CN)c4ccccc4F)cn3)ccc2n1 [Example 427, ((1S,6R,7R)-3-(5-((4-chloro-2-methyl-2H-indazol-5-yl)thio)pyrazin-2-yl)-7-(2-fluorophenyl)-3-azabicyclo[4.1.0]heptan-7-yl)methanamine] | – | – | –
3 | < 0.5 | < 1 | NC[C@]1(c2cccc(F)c2F)[C@@H]2CCN(c3cnc(Sc4ccnc(N)c4Cl)c(N)n3)C[C@@H]21 [Example 429, 3-((2-amino-3-chloropyridin-4-yl)thio)-6-((1S,6R,7R)-7-(aminomethyl)-7-(2,3-difluorophenyl)-3-azabicyclo[4.1.0]heptan-3-yl)pyrazin-2-amine] | – | – | –
4 | < 0.5 | < 1 | NC[C@]1(c2cc(F)ccc2F)[C@@H]2CCN(c3cnc(Sc4ccnc(C5CC5)c4Cl)c(N)n3)C[C@@H]21 [Example 430, 6-((1S,6R,7R)-7-(aminomethyl)-7-(2,5-difluorophenyl)-3-azabicyclo[4.1.0]heptan-3-yl)-3-((3-chloro-2-cyclopropylpyridin-4-yl)thio)pyrazin-2-amine] | – | – | –
5 | < 0.5 | < 1 | Cc1nccc(Sc2ncc(N3CC[C@@H]4[C@H](C3)[C@@]4(CN)c3cc(F)ccc3F)nc2N)c1F [Example 431, 6-((1S,6R,7R)-7-(aminomethyl)-7-(2,5-difluorophenyl)-3-azabicyclo[4.1.0]heptan-3-yl)-3-((3-fluoro-2-methylpyridin-4-yl)thio)pyrazin-2-amine] | – | – | –
6 | < 0.5 | < 1 | Cc1csc([C@@]2(CN)[C@@H]3CN(c4cc(=O)n(-c5cccc(Cl)c5Cl)c(C)n4)C[C@@H]32)n1 [Example 433, 6-((1R,5S,6r)-6-(aminomethyl)-6-(4-methylthiazol-2-yl)-3-azabicyclo[3.1.0]hexan-3-yl)-3-(2,3-dichlorophenyl)-2-methylpyrimidin-4(3H)-one] | – | – | –
7 | < 0.5 | < 1 | COc1cc(-c2ccc3nc(N4CC[C@@H]5[C@H](C4)[C@@]5(CN)c4ccccc4F)cnc3n2)cc2cccnc12 [Example 435, ((1S,6R,7R)-7-(2-fluorophenyl)-3-(6-(8-methoxyquinolin-6-yl)pyrido[2,3-b]pyrazin-2-yl)-3-azabicyclo[4.1.0]heptan-7-yl)methanamine] | – | – | –
8 | < 0.5 | < 1 | Cn1cnc2ccc(-c3ccc4nc(N5CC[C@@H]6[C@H](C5)[C@@]6(CN)c5ccccc5F)cnc4n3)cc21 [Example 436, ((1S,6R,7R)-7-(2-fluorophenyl)-3-(6-(1-methyl-1H-benzo[d]imidazol-6-yl)pyrido[2,3-b]pyrazin-2-yl)-3-azabicyclo[4.1.0]heptan-7-yl)methanamine] | – | – | –
9 | < 0.5 | 1 to 5 | Cc1csc([C@@]2(CN)[C@@H]3CN(c4cnc5c(-c6cccc(Cl)c6Cl)n[nH]c5n4)CC[C@@H]32)n1 [Example 437, ((1R,6S,7R)-3-(3-(2,3-dichlorophenyl)-1H-pyrazolo[3,4-b]pyrazin-6-yl)-7-(4-methylthiazol-2-yl)-3-azabicyclo[4.1.0]heptan-7-yl)methanamine] | – | – | –
10 | < 0.5 | < 1 | NC[C@]1(c2ccccc2F)[C@@H]2CCN(c3cnc4c(-c5ccn6nccc6c5Cl)n[nH]c4n3)C[C@@H]21 [Example 438, ((1S,6R,7R)-3-(3-(4-chloropyrazolo[1,5-a]pyridin-5-yl)-1H-pyrazolo[3,4-b]pyrazin-6-yl)-7-(2-fluorophenyl)-3-azabicyclo[4.1.0]heptan-7-yl)methanamine] | – | – | –
11 | < 0.5 | < 1 | Cc1csc([C@@]2(CN)[C@@H]3CCN(c4cnc5c(-c6ccn7nccc7c6Cl)n[nH]c5n4)C[C@@H]32)n1 [Example 439, ((1S,6R,7S)-3-(3-(4-chloropyrazolo[1,5-a]pyridin-5-yl)-1H-pyrazolo[3,4-b]pyrazin-6-yl)-7-(4-methylthiazol-2-yl)-3-azabicyclo[4.1.0]heptan-7-yl)methanamine] | – | – | –
12 | < 0.5 | < 1 | Cc1csc([C@@]2(CN)[C@@H]3CCN(c4cnc5c(-c6ccn7nc(C)cc7c6Cl)n[nH]c5n4)C[C@@H]32)n1 [Example 440, ((1S,6R,7S)-3-(3-(4-chloro-2-methylpyrazolo[1,5-a]pyridin-5-yl)-1H-pyrazolo[3,4-b]pyrazin-6-yl)-7-(4-methylthiazol-2-yl)-3-azabicyclo[4.1.0]heptan-7-yl)methanamine] | – | – | –
13 | < 0.5 | < 1 | Cc1csc(C2(CN)C3CCN(c4cnc5c(-c6ccc(Cl)c7ncccc67)n[nH]c5n4)CC32)n1 (stereo not shown) [Example 442, (3-(3-(8-chloroquinolin-5-yl)-1H-pyrazolo[3,4-b]pyrazin-6-yl)-7-(4-methylthiazol-2-yl)-3-azabicyclo[4.1.0]heptan-7-yl)methanamine] | – | – | –
14 | – | – | Cc1csc(C2(CN)C3CCN(c4cnc5c(-c6ccc(S(=O)(=O)F)c7ccccc67)n[nH]c5n4)CC32)n1 (stereo not shown) [Example 443, 4-(6-(7-(aminomethyl)-7-(4-methylthiazol-2-yl)-3-azabicyclo[4.1.0]heptan-3-yl)-1H-pyrazolo[3,4-b]pyrazin-3-yl)naphthalene-1-sulfonyl fluoride] | – | 0.5 to 3 | < 1
15 | < 0.5 | < 1 | Cc1csc([C@@]2(CN)[C@@H]3CCN(c4cnc5c(-c6ccc7nc(C)sc7c6Cl)n[nH]c5n4)C[C@@H]32)n1 [Example 444, ((1S,6R,7S)-3-(3-(7-chloro-2-methylbenzo[d]thiazol-6-yl)-1H-pyrazolo[3,4-b]pyrazin-6-yl)-7-(4-methylthiazol-2-yl)-3-azabicyclo[4.1.0]heptan-7-yl)methanamine] | – | – | –
16 | < 0.5 | < 1 | Cc1csc([C@@]2(CN)[C@@H]3CCN(c4cnc5c(-c6ccc7nn(C)c(Cl)c7c6Cl)n[nH]c5n4)C[C@@H]32)n1 [Example 445, ((1S,6R,7S)-3-(3-(3,4-dichloro-2-methyl-2H-indazol-5-yl)-1H-pyrazolo[3,4-b]pyrazin-6-yl)-7-(4-methylthiazol-2-yl)-3-azabicyclo[4.1.0]heptan-7-yl)methanamine] | – | – | –
17 | < 0.5 | < 1 | NCC1(c2nc(Cl)cs2)C2CCN(c3cnc4c(-c5ccc(F)c6ncccc56)n[nH]c4n3)CC21 (stereo not shown) [Example 446, (7-(4-chlorothiazol-2-yl)-3-(3-(8-fluoroquinolin-5-yl)-1H-pyrazolo[3,4-b]pyrazin-6-yl)-3-azabicyclo[4.1.0]heptan-7-yl)methanamine] | – | – | –
18 | < 0.5 | < 1 | Cc1csc([C@@]2(CN)[C@@H]3CN(c4cnc(Sc5ccn6cc(C(=O)N(C)C)nc6c5Cl)cn4)C[C@@H]32)n1 [Example 447, 7-((5-((1R,5S,6r)-6-(aminomethyl)-6-(4-methylthiazol-2-yl)-3-azabicyclo[3.1.0]hexan-3-yl)pyrazin-2-yl)thio)-8-chloro-N,N-dimethylimidazo[1,2-a]pyridine-2-carboxamide] | – | – | –
19 | – | – | Cc1csc([C@@]2(CN)[C@@H]3CCN(c4cnc5c(-c6ccc(OS(=O)(=O)F)c7ncccc67)n[nH]c5n4)C[C@@H]32)n1 [Example 448, 5-(6-((1S,6R,7S)-7-(aminomethyl)-7-(4-methylthiazol-2-yl)-3-azabicyclo[4.1.0]heptan-3-yl)-1H-pyrazolo[3,4-b]pyrazin-3-yl)quinolin-8-yl sulfurofluoridate] | – | < 0.5 | < 1
20 | – | – | NC[C@]1(c2ccccc2F)[C@@H]2CCN(c3cnc4c(-c5ccc(OS(=O)(=O)F)c6ncccc56)n[nH]c4n3)C[C@@H]21 [Example 449, 5-(6-((1S,6R,7R)-7-(aminomethyl)-7-(2-fluorophenyl)-3-azabicyclo[4.1.0]heptan-3-yl)-1H-pyrazolo[3,4-b]pyrazin-3-yl)quinolin-8-yl sulfurofluoridate] | – | < 0.5 | < 1

Row | Compound | IC50 [1, 3] [µM] | IC50 [2, 4] [µM] | IC50 [2, 5] [µM] | IC50 [1, 6] [µM] | IC50 ([2]; Homo sapiens, KYSE-520, 2 h) [µM]
21 | CN(C)C(=O)Cn1cc2c(Cl)c(-c3n[nH]c4nc(N5CC[C@@H]6[C@H](C5)[C@@]6(CN)c5ccccc5F)cnc34)ccc2n1 [Example 428] | < 0.5 | – | < 1 | – | –
22 | CN(C)C(=O)Cn1ncc2c(Cl)c(-c3n[nH]c4nc(N5CC[C@@H]6[C@H](C5)[C@@]6(CN)c5ccccc5F)cnc34)ccc21 [Example 432] | < 0.5 | – | < 1 | – | –
23 | Cc1csc([C@@]2(CN)[C@@H]3CN(c4cnc(Sc5ccnc(N)c5Cl)c(N)n4)C[C@@H]32)n1 [Example 434, 3-((2-amino-3-chloropyridin-4-yl)thio)-6-((1R,5S,6r)-6-(aminomethyl)-6-(4-methylthiazol-2-yl)-3-azabicyclo[3.1.0]hexan-3-yl)pyrazin-2-amine] | < 0.5 | – | < 1 | – | –
